Data from patent US10294248B2, “Beta-lactamase inhibitors” (VenatoRx Pharmaceuticals, Inc., priority 2013, dated 2019).

Columns and labels:
[1] = test system: K. pneumoniae A-1797 expressing KPC-2 and VIM-4; test: Broth microdilution MIC, K. pneumoniae A-1797 KPC-2/VIM-4; assay type: cell-based; conditions: fixed 4 μg/mL meropenem; CAMHB, 16-20 hours at 37° C.
Summary of the method: (§1)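 Visual MIC readout follows 16-20 h incubation at 37° C. Final compound range spans 32 down to 0.25 μg/ml in two-fold steps, each well also carrying a β-lactam at a static 4 μg/ml, with inoculation done by the CLSI microdilution method in cation-adjusted Mueller Hinton broth.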

[2] = test system: K. pneumoniae 156319 expressing KPC-3; test: Broth microdilution MIC, K. pneumoniae 156319 KPC-3; assay type: cell-based; conditions: fixed 4 μg/mL meropenem; CAMHB, 16-20 hours at 37° C.
Summary of the method: as §1

[3] = test system: E. coli ESBL4 expressing CTX-M-15; test: Broth microdilution MIC, E. coli ESBL4 CTX-M-15; assay type: cell-based; conditions: fixed 4 μg/mL ceftazidime; CAMHB, 16-20 hours at 37° C.
Summary of the method: as §1

[4] = target: T1, KPC-2 β-lactamase (Class A carbapenemase) (Klebsiella pneumoniae, UniProt Q9F663); test: β-Lactamase inhibition, KPC-2; assay type: biochemical; conditions: imipenem substrate, 300 nm; 15 min preincubation at 37° C., PBS pH 7.4
T1 construct: made in house; host or cells: E. coli BL21(DE3)
Summary of the method: (§2)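 Compounds are mixed with purified, untagged recombinant β-lactamase and held 15 min at 37 °C. Substrate is then added: nitrocefin (100 μM final) for OXA-1, imipenem for KPC-2, cefotaxime for SHV-5. Absorbance is followed immediately, and percent inhibition per concentration gives the IC50.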

[5] = target: T2, p99 AmpC β-lactamase (Class C) (Enterobacter cloacae, UniProt P05364); test: β-Lactamase inhibition, p99 AmpC; assay type: biochemical
T2 construct: made in house; host or cells: E. coli BL21(DE3)

[6] = test system: S. aureus MSSA-7 producing penicillinase PC-1; test: Broth microdilution MIC, S. aureus MSSA-7 PC-1; assay type: cell-based; conditions: fixed 4 μg/mL piperacillin; CAMHB, 16-20 hours at 37° C.
Summary of the method: as §1

[7] = target: T3, SHV-5 β-lactamase (Class A ESBL) (Klebsiella pneumoniae, UniProt P0A3M1); test: β-Lactamase inhibition, SHV-5; assay type: biochemical
T3 construct: made in house; host or cells: E. coli BL21(DE3)
Summary of the method: as §2

[8] = target: T4, VIM-2 metallo-β-lactamase (Class B) (Pseudomonas aeruginosa, UniProt Q9K2N0); test: β-Lactamase inhibition, VIM-2; assay type: biochemical; conditions: nitrocefin 100 μM, 486 nm; 15 min preincubation at 37° C., PBS pH 7.4
T4 construct: made in house; host or cells: E. coli BL21(DE3)
Summary of the method: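 Metallo-β-lactamase VIM-2 activity was tracked spectrophotometrically at 486 nm with 100 μM nitrocefin over 10 min, following 15 min preincubation with compound at 37 °C; inhibition was calculated per concentration.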

[9] = test system: E. cloacae 144200 expressing Class C P99 AmpC; test: Broth microdilution MIC, E. cloacae 144200 p99 AmpC; assay type: cell-based; conditions: fixed 4 μg/mL ceftazidime; CAMHB, 16-20 hours at 37° C.
Summary of the method: as §1

[10] = test system: P. aeruginosa Ps296 expressing VIM-2; test: Broth microdilution MIC, P. aeruginosa Ps296 VIM-2; assay type: cell-based; conditions: fixed 4 μg/mL meropenem; CAMHB, 16-20 hours at 37° C.
Summary of the method: as §1

[11] = target: T5, OXA-1 β-lactamase (Class D oxacillinase) (Escherichia coli, UniProt P13661); test: β-Lactamase inhibition, OXA-1; assay type: biochemical; conditions: nitrocefin 100 μM, 486 nm; 15 min preincubation at 37° C., PBS pH 7.4
T5 construct: made in house; host or cells: E. coli BL21(DE3)
Summary of the method: as §2

T3 sequence (P0A3M1 22-286): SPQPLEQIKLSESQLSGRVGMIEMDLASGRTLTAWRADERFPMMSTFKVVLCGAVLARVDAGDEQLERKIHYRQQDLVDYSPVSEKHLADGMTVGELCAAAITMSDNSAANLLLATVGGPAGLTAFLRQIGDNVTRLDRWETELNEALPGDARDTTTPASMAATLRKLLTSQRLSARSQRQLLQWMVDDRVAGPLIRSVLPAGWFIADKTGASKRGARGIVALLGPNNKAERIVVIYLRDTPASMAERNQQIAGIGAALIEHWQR
T2 sequence (P05364 21-381): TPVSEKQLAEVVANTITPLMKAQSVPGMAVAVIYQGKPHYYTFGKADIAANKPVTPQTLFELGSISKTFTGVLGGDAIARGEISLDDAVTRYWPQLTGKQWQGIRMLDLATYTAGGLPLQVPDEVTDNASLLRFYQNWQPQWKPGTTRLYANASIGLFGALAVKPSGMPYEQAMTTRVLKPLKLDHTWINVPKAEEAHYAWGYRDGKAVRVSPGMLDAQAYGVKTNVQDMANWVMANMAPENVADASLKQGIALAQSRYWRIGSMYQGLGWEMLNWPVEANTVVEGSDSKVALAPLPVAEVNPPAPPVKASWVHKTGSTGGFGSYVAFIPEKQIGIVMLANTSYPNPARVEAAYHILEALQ
T5 sequence (P13661 26-276): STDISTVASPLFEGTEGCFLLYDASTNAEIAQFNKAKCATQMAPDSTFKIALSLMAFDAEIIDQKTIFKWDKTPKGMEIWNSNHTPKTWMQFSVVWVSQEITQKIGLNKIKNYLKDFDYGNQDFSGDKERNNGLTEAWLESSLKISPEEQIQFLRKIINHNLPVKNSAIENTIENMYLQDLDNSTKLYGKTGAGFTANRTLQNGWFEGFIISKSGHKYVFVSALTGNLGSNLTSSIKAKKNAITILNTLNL
T1 sequence (Q9F663 25-293, looked up): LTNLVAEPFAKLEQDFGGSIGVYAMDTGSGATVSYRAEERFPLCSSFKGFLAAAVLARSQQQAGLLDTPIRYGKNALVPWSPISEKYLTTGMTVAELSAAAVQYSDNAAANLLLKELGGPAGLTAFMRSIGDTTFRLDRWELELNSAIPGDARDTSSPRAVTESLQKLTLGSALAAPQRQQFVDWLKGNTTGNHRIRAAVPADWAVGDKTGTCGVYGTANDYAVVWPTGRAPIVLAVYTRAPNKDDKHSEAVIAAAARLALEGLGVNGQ

Structure (SMILES) | MIC of example compound in presence of fixed β-lactam: Fixed Mero, K. P. A-1797 KPC-2 VIM-4 [1] | MIC of example compound in presence of fixed β-lactam: Fixed Mero, K. P. 156319 KPC-3 [2] | MIC of example compound in presence of fixed β-lactam: Fixed CAZ, E. coli ESBL4 CTX-M-15 [3] | IC50 [4] [µM] | IC50 [5] [µM] | MIC of example compound in presence of fixed β-lactam: Fixed Pip, S. aureus MSSA-7 PC-1 [6] | IC50 [7] [µM] | IC50 [8] [µM] | MIC of example compound in presence of fixed β-lactam: Fixed CAZ, E. cl. 144200 p99 AmpC [9] | MIC of example compound in presence of fixed β-lactam: Fixed Mero, P. aerug. Ps296 VIM-2 [10] | IC50 [11] [µM]
O=C(CCN1CCNCC1)N[C@H]1Cc2cccc(C(=O)O)c2OB1O [Example 23, 2-Hydroxy-3-(3-piperazin-1-yl-propionylamino)-3,4-dihydro-2H-benzo[e][1,2]oxaborinine-8-carboxylic acid] | B (the MIC in the presence of between 8 and 32 μg/mL of a β-lactamase inhibitor) | C (the MIC in the presence of <4 μg/mL of a β-lactamase inhibitor) | C (the MIC in the presence of <4 μg/mL of a β-lactamase inhibitor) | < 0.1 | < 0.1 | C (the MIC in the presence of <4 μg/mL of a β-lactamase inhibitor) | < 0.1 | 1 to 10 | C (the MIC in the presence of <4 μg/mL of a β-lactamase inhibitor) | B (the MIC in the presence of between 8 and 32 μg/mL of a β-lactamase inhibitor) | < 0.1
NCCN1CCN(CC(=O)N[C@H]2Cc3cccc(C(=O)O)c3OB2O)CC1 [Example 16, 3-{2-[4-(2-Amino-ethyl)-piperazin-1-yl]-acetylamino}-2-hydroxy-3,4-dihydro-2H-benzo[e][1,2]oxaborinine-8-carboxylic acid] | B (the MIC in the presence of between 8 and 32 μg/mL of a β-lactamase inhibitor) | C (the MIC in the presence of <4 μg/mL of a β-lactamase inhibitor) | C (the MIC in the presence of <4 μg/mL of a β-lactamase inhibitor) | 0.1 to 1 | < 0.1 | C (the MIC in the presence of <4 μg/mL of a β-lactamase inhibitor) | < 0.1 | 1 to 10 | C (the MIC in the presence of <4 μg/mL of a β-lactamase inhibitor) | C (the MIC in the presence of <4 μg/mL of a β-lactamase inhibitor) | < 0.1
O=C(O)c1cccc2c1OB(O)[C@@H](NC(=O)C1CCNCC1)C2 [Example 44, 2-Hydroxy-3-[(piperidine-4-carbonyl)-amino]-3,4-dihydro-2H-benzo[e][1,2]oxaborinine-8-carboxylic acid] | A (an MIC of the fixed β-lactam antibiotic in the presence of >32 μg/mL of a β-lactamase inhibitor) | C (the MIC in the presence of <4 μg/mL of a β-lactamase inhibitor) | C (the MIC in the presence of <4 μg/mL of a β-lactamase inhibitor) | < 0.1 | < 0.1 | C (the MIC in the presence of <4 μg/mL of a β-lactamase inhibitor) | < 0.1 | 10 to 100 | C (the MIC in the presence of <4 μg/mL of a β-lactamase inhibitor) | A (an MIC of the fixed β-lactam antibiotic in the presence of >32 μg/mL of a β-lactamase inhibitor) | < 0.1
O=C(O)c1cccc2c1OB(O)[C@@H](NC(=O)C1CNC1)C2 [Example 46, (R)-3-(azetidine-3-carboxamido)-2-hydroxy-3,4-dihydro-2H-benzo[e][1,2]oxaborinine-8-carboxylic acid] | A (an MIC of the fixed β-lactam antibiotic in the presence of >32 μg/mL of a β-lactamase inhibitor) | B (the MIC in the presence of between 8 and 32 μg/mL of a β-lactamase inhibitor) | C (the MIC in the presence of <4 μg/mL of a β-lactamase inhibitor) | 0.1 to 1 | < 0.1 | C (the MIC in the presence of <4 μg/mL of a β-lactamase inhibitor) | < 0.1 | 1 to 10 | C (the MIC in the presence of <4 μg/mL of a β-lactamase inhibitor) | A (an MIC of the fixed β-lactam antibiotic in the presence of >32 μg/mL of a β-lactamase inhibitor) | 0.1 to 1
NC1CCN(CC(=O)N[C@H]2Cc3cccc(C(=O)O)c3OB2O)CC1N (some centres unmarked) [Example 28, 3-[2-(3,4-Diamino-piperidin-1-yl)-acetylamino]-2-hydroxy-3,4-dihydro-2H-benzo[e][1,2]oxaborinine-8-carboxylic acid] | B (the MIC in the presence of between 8 and 32 μg/mL of a β-lactamase inhibitor) | C (the MIC in the presence of <4 μg/mL of a β-lactamase inhibitor) | C (the MIC in the presence of <4 μg/mL of a β-lactamase inhibitor) | < 0.1 | < 0.1 | C (the MIC in the presence of <4 μg/mL of a β-lactamase inhibitor) | 10 to 100 | 10 to 100 | C (the MIC in the presence of <4 μg/mL of a β-lactamase inhibitor) | C (the MIC in the presence of <4 μg/mL of a β-lactamase inhibitor) | < 0.1
NC1CCN(CCC(=O)N[C@H]2Cc3cccc(C(=O)O)c3OB2O)CC1 [Example 22, 3-[3-(4-Amino-piperidin-1-yl)-propionylamino]-2-hydroxy-3,4-dihydro-2H-benzo[e][1,2]oxaborinine-8-carboxylic acid] | A (an MIC of the fixed β-lactam antibiotic in the presence of >32 μg/mL of a β-lactamase inhibitor) | B (the MIC in the presence of between 8 and 32 μg/mL of a β-lactamase inhibitor) | C (the MIC in the presence of <4 μg/mL of a β-lactamase inhibitor) | 0.1 to 1 | < 0.1 | C (the MIC in the presence of <4 μg/mL of a β-lactamase inhibitor) | 0.1 to 1 | 1 to 10 | C (the MIC in the presence of <4 μg/mL of a β-lactamase inhibitor) | A (an MIC of the fixed β-lactam antibiotic in the presence of >32 μg/mL of a β-lactamase inhibitor) | 0.1 to 1
CN(C)CCN1CCN(CC(=O)N[C@H]2Cc3cccc(C(=O)O)c3OB2O)CC1 [Example 3, 3-{2-[4-(2-Dimethylamino-ethyl)-piperazin-1-yl]-acetylamino}-2-hydroxy-3,4-dihydro-2H-benzo[e][1,2]oxaborinine-8-carboxylic acid] | B (the MIC in the presence of between 8 and 32 μg/mL of a β-lactamase inhibitor) | C (the MIC in the presence of <4 μg/mL of a β-lactamase inhibitor) | C (the MIC in the presence of <4 μg/mL of a β-lactamase inhibitor) | < 0.1 | < 0.1 | C (the MIC in the presence of <4 μg/mL of a β-lactamase inhibitor) | < 0.1 | 1 to 10 | C (the MIC in the presence of <4 μg/mL of a β-lactamase inhibitor) | C (the MIC in the presence of <4 μg/mL of a β-lactamase inhibitor) | 0.1 to 1
